Measured values reported in patent publication US11504383B2, “Crystalline forms of a Ryanodine receptor modulator and uses thereof” (ARMGO Pharma, Inc., priority 2021, dated 2022).
“Also recorded” adds a separate entry of the source.

What was measured:
Assay type in all cases: physicochemical
[1] = Storage stability of the polymorphs followed by XRD; settings: after 24 months (XRD at 3, 6, 12 and 24 months)
Experimental: The top panel depicts the polymorph at initiation and the bottom three panels depict the polymorph after 24 months. FIG. 5 Panel A: initial control; FIG. 5 Panel B: sample stored for 2 years in open bottle in stability chambers at 25° C./60% relative humidity (RH); FIG. 5 Panel C: sample stored for 2 years in closed bottle in stability chambers at 40° C./75% RH; FIG. 5 Panel D: sample stored for 2 years in open bottle in stability chambers at 40° C./75% RH.
The top panel depicts the polymorph at initiation and the bottom panels depict the polymorph after 3, 6, 12 and 24 months.

[2] = Competitive slurry experiments mixing Form 1 and Form 2 in various solvents; settings: competitive slurry experiments at 15° C. and 40° C.
Experimental: Competitive slurry experiments were performed at 15° C. (Table 5) or 40° C. (Table 6) by mixing Form 1 and Form 2 in various solvents in acetonitrile/water, acetone/water and methanol/water mixtures. […] (Table 5) or 40° C. (Table 6).

[3] = Dynamic vapor sorption (hygroscopicity); settings: DVS, 25° C., 0-90% relative humidity
Experimental: Dynamic vapor sorption (DVS) analysis was performed by measuring mass variation of the crystalline form of 4-[(7-methoxy-2,3-dihydro-1,4-benzothiazepin-4(5H)yl)methyl]benzoic acid hemifumarate as a function of relative humidity using a DVS intrinsic instrument. A 5 mg to 10 mg of a sample of a crystalline form of 4-[(7-methoxy-2,3-dihydro-1,4-benzothiazepin-4(5H)yl)methyl]benzoic acid, hemifumarate was placed into a sample pan of a DVS intrinsic instrument at 25° C. under controlled humidity. The mass variation was recorded as a function of relative humidity.
Measurement of DVS comprised: (a) equilibrating a sample of the crystalline form at 25° C. and 50% relative humidity in a temperature-controlled and humidity controlled chamber until mass variation is less than 0.002% per minute for 6 hours; (b) increasing the relative humidity from 50% to 90% at a rate of 10% per hour; (c) equilibrating the sample at 90% relative humidity until mass variation of less than 0.002% per minute for 6 hours is observed; (d) decreasing the relative humidity from 90% to 0% at a rate of 10% per hour; (e) equilibrating the sample at 0% relative humidity until mass variation of less than 0.002% per minute for 6 hours is observed; and (f) increasing the relative humidity from 0% to 50% at a rate of 10% per hour.

[4] = Thermogravimetric analysis (loss of mass before melting/degradation); settings: 25° C. to 250° C. at about 10° C./minute
Experimental: Thermogravimetric analysis (TGA) was performed. A 10 to 20 mg of sample of a crystalline form of 4-[(7-methoxy-2,3-dihydro-1,4-benzothiazepin-4(5H)yl)methyl]benzoic acid hemifumarate was placed into an aluminum pan, with nitrogen purge. The sample was equilibrated at 25° C. in a temperature-controlled chamber. The sample was heated at a scan rate of about 10° C./minute to 250° C. under nitrogen purge. A TGA Q5000 thermogravimetric analysis instrument was used.

Stability of the polymorph on storage (XRD, FIG. 10) [1]: stable
Relative stability of the forms [2]: more stable than Form 1
Loss of mass before melting degradation (TGA) [4]: < 0.1%
Structure (SMILES): COc1ccc2c(c1)CN(Cc1ccc(C(=O)O)cc1)CCS2.O=C(O)/C=C/C(=O)O [Form 2, 4-[(7-methoxy-2,3-dihydro-1,4-benzothiazepin-4(5H)yl)methyl]benzoic acid, hemifumarate]
Hygroscopicity [3]: non-hygroscopic; also recorded: not hygroscopic
